Test results from PubChem BioAssay AID1963971 (Molecular Pharmacology Branch, DTP, NCI, 2024).

Tested on: 953936-095-R-J2-PDC spheroids with HUVEC/MSC, viability
Test: Anticancer human tumor 953936-095-R-J2-PDC patient-derived cervical squamous cell carcinoma cell line growth inhibition [PI3K]
Conditions: for IC50: curve of first compound; for viability, T/C: stronger effect = lower value
Procedure, shortened: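 Stroma-containing spheroids: tumor line, pooled-donor HUVEC, hMSC. Treatments: targeted agents with PI3K inhibitors. Dosing: clinically relevant, half-log spacing, 10 microM ceiling without known Cmax. Read-out: cell viability.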

[1] = second compound 0.00316 µM, first compound 0.0316 µM
[2] = second compound 0.00316 µM, first compound 0.1 µM
[3] = second compound 0.00316 µM, first compound 0.316 µM
[4] = second compound 0.00316 µM, first compound 1 µM
[5] = second compound 0.00316 µM, first compound 3.16 µM
[6] = second compound 0.00316 µM, first compound 10 µM
[7] = second compound 0.01 µM, first compound 0.0316 µM
[8] = second compound 0.01 µM, first compound 0.1 µM
[9] = second compound 0.01 µM, first compound 0.316 µM
[10] = second compound 0.01 µM, first compound 1 µM
[11] = second compound 0.01 µM, first compound 3.16 µM
[12] = second compound 0.01 µM, first compound 10 µM
[13] = second compound 0.0316 µM, first compound 0.0316 µM
[14] = second compound 0.0316 µM, first compound 0.1 µM
[15] = second compound 0.0316 µM, first compound 0.316 µM
[16] = second compound 0.0316 µM, first compound 1 µM
[17] = second compound 0.0316 µM, first compound 3.16 µM
[18] = second compound 0.0316 µM, first compound 10 µM
[19] = second compound 0.1 µM, first compound 0.0316 µM
[20] = second compound 0.1 µM, first compound 0.1 µM
[21] = second compound 0.1 µM, first compound 0.316 µM
[22] = second compound 0.1 µM, first compound 1 µM
[23] = second compound 0.1 µM, first compound 3.16 µM
[24] = second compound 0.1 µM, first compound 10 µM
[25] = second compound 0.316 µM, first compound 0.0316 µM
[26] = second compound 0.316 µM, first compound 0.1 µM
[27] = second compound 0.316 µM, first compound 0.316 µM
[28] = second compound 0.316 µM, first compound 1 µM
[29] = second compound 0.316 µM, first compound 3.16 µM
[30] = second compound 0.316 µM, first compound 10 µM
[31] = second compound 1 µM, first compound 0.0316 µM
[32] = second compound 1 µM, first compound 0.1 µM
[33] = second compound 1 µM, first compound 0.316 µM
[34] = second compound 1 µM, first compound 1 µM
[35] = second compound 1 µM, first compound 3.16 µM
[36] = second compound 1 µM, first compound 10 µM
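Further: spheroids exposed to compounds for seven days before read-out.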

`C#Cc1c(F)ccc2cc(O)cc(-c3ncc4c(N5CC6CCC(C5)N6)nc(OCC56CCCN5CC(F)C6)nc4c3F)c12` (stereo not drawn) + CC(Nc1ccc2c(c1)OCCn1cc(N3C(=O)OCC3C(F)F)nc1-2)C(N)=O was tested, and the IC50 (second compound 0.00316 µM) was > 10000 nM, the IC50 (second compound 0.01 µM) was > 10000 nM and the IC50 (second compound 0.0316 µM) was 7100 nM. The IC50 (second compound 0.1 µM) was 1020 nM, the IC50 (second compound 0.316 µM) was < 31.6 nM and the IC50 (second compound 1 µM) was < 31.6 nM. For the same compound, the viability, T/C [1] was 95.9%, the viability, T/C [2] was 110% and the viability, T/C [3] was 89.5%. The viability, T/C [4] was 87.6%, the viability, T/C [5] was 71.6% and the viability, T/C [6] was 76.3%. It also gave a viability, T/C [7] of 92.5%, a viability, T/C [8] of 95% and a viability, T/C [9] of 80.9%. It also gave a viability, T/C [10] of 88.2%, a viability, T/C [11] of 64.8% and a viability, T/C [12] of 61%. It also gave a viability, T/C [13] of 78.3%, a viability, T/C [14] of 81.6% and a viability, T/C [15] of 76.1%. The viability, T/C [16] was 70%, the viability, T/C [17] was 61.5% and the viability, T/C [18] was 45.2%. The viability, T/C [19] was 60.1%, the viability, T/C [20] was 64.7% and the viability, T/C [21] was 57.4%. For the same compound, the viability, T/C [22] was 48.3%, the viability, T/C [23] was 41.2% and the viability, T/C [24] was 30%. It also gave a viability, T/C [25] of 38.3%, a viability, T/C [26] of 34.6% and a viability, T/C [27] of 36.1%. The viability, T/C [28] was 28.2%, the viability, T/C [29] was 22.6% and the viability, T/C [30] was 17.3%. The viability, T/C [31] was 24%, the viability, T/C [32] was 21.9% and the viability, T/C [33] was 21.6%. For the same compound, the viability, T/C [34] was 16%, the viability, T/C [35] was 12.4% and the viability, T/C [36] was 9.54%.

`C=CC(=O)N1CCN(c2nc(=O)n(-c3c(C)ccnc3C(C)C)c3nc(-c4c(O)cccc4F)c(F)cc23)C(C)C1` (stereo not drawn) + CC(Nc1ccc2c(c1)OCCn1cc(N3C(=O)OCC3C(F)F)nc1-2)C(N)=O was tested, and the IC50 (second compound 0.00316 µM) was > 10000 nM, the IC50 (second compound 0.01 µM) was > 10000 nM and the IC50 (second compound 0.0316 µM) was > 10000 nM. For the same compound, the IC50 (second compound 0.1 µM) was > 10000 nM, the IC50 (second compound 0.316 µM) was < 31.6 nM and the IC50 (second compound 1 µM) was < 31.6 nM. The viability, T/C [1] was 94.8%, the viability, T/C [2] was 94.5% and the viability, T/C [3] was 99.9%. For the same compound, the viability, T/C [4] was 110%, the viability, T/C [5] was 114% and the viability, T/C [6] was 112%. For the same compound, the viability, T/C [7] was 86.8%, the viability, T/C [8] was 91.3% and the viability, T/C [9] was 101%. For the same compound, the viability, T/C [10] was 101%, the viability, T/C [11] was 116% and the viability, T/C [12] was 108%. The viability, T/C [13] was 80%, the viability, T/C [14] was 82.5% and the viability, T/C [15] was 89.5%. It also gave a viability, T/C [16] of 98.6%, a viability, T/C [17] of 90.4% and a viability, T/C [18] of 94.1%. For the same compound, the viability, T/C [19] was 60.2%, the viability, T/C [20] was 56.2% and the viability, T/C [21] was 61.4%. It also gave a viability, T/C [22] of 72.3%, a viability, T/C [23] of 77.7% and a viability, T/C [24] of 69.2%. The viability, T/C [25] was 37.1%, the viability, T/C [26] was 35.3% and the viability, T/C [27] was 34.9%. For the same compound, the viability, T/C [28] was 42%, the viability, T/C [29] was 39.6% and the viability, T/C [30] was 35.9%. It also gave a viability, T/C [31] of 21.4%, a viability, T/C [32] of 25.3% and a viability, T/C [33] of 23.2%. For the same compound, the viability, T/C [34] was 24.5%, the viability, T/C [35] was 22.5% and the viability, T/C [36] was 19.6%.

With `CC(Cn1ccc(-c2ccc(C#N)c(Cl)c2)n1)NC(=O)c1cc(C(C)O)[nH]n1` (stereo not drawn) + CC(Nc1ccc2c(c1)OCCn1cc(N3C(=O)OCC3C(F)F)nc1-2)C(N)=O the IC50 (second compound 0.00316 µM) was > 10000 nM, the IC50 (second compound 0.01 µM) was > 10000 nM and the IC50 (second compound 0.0316 µM) was > 10000 nM. For the same compound, the IC50 (second compound 0.1 µM) was > 10000 nM, the IC50 (second compound 0.316 µM) was < 31.6 nM and the IC50 (second compound 1 µM) was < 31.6 nM. For the same compound, the viability, T/C [1] was 86.4%, the viability, T/C [2] was 92.7% and the viability, T/C [3] was 94%. It also gave a viability, T/C [4] of 97.8%, a viability, T/C [5] of 105% and a viability, T/C [6] of 107%. It also gave a viability, T/C [7] of 87.7%, a viability, T/C [8] of 90.9% and a viability, T/C [9] of 92.1%. The viability, T/C [10] was 91.5%, the viability, T/C [11] was 86.6% and the viability, T/C [12] was 95.1%. It also gave a viability, T/C [13] of 84.3%, a viability, T/C [14] of 76.1% and a viability, T/C [15] of 74.7%. It also gave a viability, T/C [16] of 84.5%, a viability, T/C [17] of 81.7% and a viability, T/C [18] of 82.6%. For the same compound, the viability, T/C [19] was 58.1%, the viability, T/C [20] was 56.3% and the viability, T/C [21] was 54.6%. The viability, T/C [22] was 54.4%, the viability, T/C [23] was 61.3% and the viability, T/C [24] was 56.5%. It also gave a viability, T/C [25] of 34.3%, a viability, T/C [26] of 32.5% and a viability, T/C [27] of 32.6%. The viability, T/C [28] was 36.2%, the viability, T/C [29] was 38.4% and the viability, T/C [30] was 34.6%. The viability, T/C [31] was 21.8%, the viability, T/C [32] was 21.7% and the viability, T/C [33] was 20.9%. For the same compound, the viability, T/C [34] was 26.6%, the viability, T/C [35] was 22.6% and the viability, T/C [36] was 24.1%.

In the case of `CC1(C)CCC(Nc2ncc(C(F)(F)F)c(-c3c[nH]c4c(P(C)(C)=O)c(C#N)ccc34)n2)CN1` (stereo not drawn) + CC(Nc1ccc2c(c1)OCCn1cc(N3C(=O)OCC3C(F)F)nc1-2)C(N)=O, the IC50 (second compound 0.00316 µM) is reported as < 31.6 nM, the IC50 (second compound 0.01 µM) is reported as < 31.6 nM and the IC50 (second compound 0.0316 µM) is reported as < 31.6 nM. The IC50 (second compound 0.1 µM) was < 31.6 nM, the IC50 (second compound 0.316 µM) was < 31.6 nM and the IC50 (second compound 1 µM) was < 31.6 nM. It also gave a viability, T/C [1] of 48.3%, a viability, T/C [2] of 44.8% and a viability, T/C [3] of 49.2%. It also gave a viability, T/C [4] of 58.6%, a viability, T/C [5] of 45.3% and a viability, T/C [6] of 5.82%. The viability, T/C [7] was 49.9%, the viability, T/C [8] was 45% and the viability, T/C [9] was 42.8%. For the same compound, the viability, T/C [10] was 51.6%, the viability, T/C [11] was 50.3% and the viability, T/C [12] was 5.56%. For the same compound, the viability, T/C [13] was 45.9%, the viability, T/C [14] was 42.4% and the viability, T/C [15] was 39.2%. It also gave a viability, T/C [16] of 40.8%, a viability, T/C [17] of 44.9% and a viability, T/C [18] of 4.63%. For the same compound, the viability, T/C [19] was 38.5%, the viability, T/C [20] was 32.2% and the viability, T/C [21] was 35.2%. It also gave a viability, T/C [22] of 32.7%, a viability, T/C [23] of 41.1% and a viability, T/C [24] of 3.61%. For the same compound, the viability, T/C [25] was 21.5%, the viability, T/C [26] was 22.4% and the viability, T/C [27] was 22.4%. It also gave a viability, T/C [28] of 22.4%, a viability, T/C [29] of 19.8% and a viability, T/C [30] of 1.3%. For the same compound, the viability, T/C [31] was 16.5%, the viability, T/C [32] was 16.3% and the viability, T/C [33] was 17.7%. The viability, T/C [34] was 16.6%, the viability, T/C [35] was 15.7% and the viability, T/C [36] was 0.88%.
